Key:
Format in all cases: cell-based
[1] = system: rat glioma C6 cells; test: MTT proliferation assay, glioma C6; settings: 96 h
Experimental: (§1) The anticancer effect of compounds was tested in non-small cell lung cancer A549, colon carcinoma HT-29, and glioma C6 cells. The cells were exposed to either culture medium as the control culture or the compounds in concentrations of 10, 25, 50, and 100 μmol dm^−3. […] Cisplatin was used as a reference drug.
(§2) Human non-small cell lung cancer A549 (Cat. No. 86012804), human colon adenocarcinoma HT-29 (Cat. No. 91072201), rat glioma C6 (Cat. No. 92090409) cell lines were obtained from the PHE Culture Collections (Public Health England Culture Collections, Porton Down, Salisbury, UK). Primary culture of normal human skin fibroblasts (HSF) was obtained by the outgrowth technique from skin explants of young persons in our laboratory. The cells were kept in the following culture media purchased from Sigma (Sigma Chemicals, St. Louis, MO, USA): A549—3:1 mixture of DMEM and Nutrient mixture F-12 Ham; C6 and HSF—DMEM, HT-29—1:1 mixture of DMEM and Nutrient mixture F-12 Ham. All media were supplemented with 10 % FBS (Sigma), penicillin (100 U cm^−3, Sigma) and streptomycin (100 μg cm^−3, Sigma). The cultures were kept at 37 °C in a humidified atmosphere of 95 % air and 5 % CO2.
(§3) Cancer cells were plated on 96-well microplates at a density of 1 × 10^4 (A549), 3 × 10^4 (HT-29), and 0.5 × 10^4 (C6) cells cm^−3. Next day, the culture medium was removed and the cells exposed to serial dilutions of compounds (10, 25, 50, and 100 μmol dm^−3) in a fresh medium. Cell proliferation was assessed after 96 h using the MTT method in which the yellow tetrazolium salt (MTT) is metabolized by viable cells to purple formazan crystals. The cancer cells were incubated for 3–4 h with MTT solution (5 mg cm^−3). Formazan crystals were solubilized overnight in the SDS buffer (10 % SDS in 0.01 mol dm^−3 HCl) and the product quantified spectrophotometrically by measuring absorbance at the 570 nm wavelength using a Elx800 microplate reader (BIO-TEK, Highland Park, Winooski, Vermont, USA).

[2] = system: human non-small cell lung cancer A549; test: MTT proliferation assay, A549; settings: A549 cells, 96 h
Experimental: as §1, §2, §3

[3] = system: human colon carcinoma HT-29; test: MTT proliferation assay, HT-29; settings: HT-29 cells, 96 h
Experimental: as §1, §2, §3

[4] = system: normal human skin fibroblasts HSF; test: LDH cytotoxicity assay, skin fibroblasts; settings: 24 h; for Effect on death cells in the culture (protective properties, LDH): 10–100 μmol dm^−3
Experimental: Additionally, the influence of compounds on normal human skin fibroblast primary culture (HSF) was assessed. HSF cells were exposed to compounds (10–100 μmol dm^−3) for 24 h and the level of lactic dehydrogenase (LDH) released from the damaged cells was measured (LDH method). […] Only compound 2c in all tested concentrations and 2b in the concentration 100 μmol dm^−3 were highly toxic for skin fibroblasts. […] This may indicate protective properties of the compounds.
as §2
Skin fibroblasts HSF were plated on 96-well microplates at a density of 1 × 10^5 cells cm^−3. The following day, the culture medium was removed and the cells exposed to serial dilutions of compounds (10, 25, 50, and 100 μmol dm^−3) diluted in a fresh culture medium with a reduced amount of FBS (2 %). Cytotoxicity was detected after 24 h with the use In Vitro Toxicology Assay Kit, Lactic Dehydrogenase based (Sigma). The assay is based on the reduction of NAD by the action of lactic dehydrogenase (LDH) released from damaged cells. The resulting NADH is utilized in the stoichiometric conversion of a tetrazolium dye. The resulting coloured compound is measured spectrophotometrically. The test was carried out according to the kit procedure. The colour product was quantified spectrophotometrically at 450 nm wavelength using an Elx800 microplate reader.

IC50 ([1]; Rattus norvegicus) | SMILES | IC50 ([2]; Homo sapiens) | IC50 ([3]; Homo sapiens) | Effect on death cells in the culture (protective properties, LDH) [4] | also measured
35.8 µM | Cc1cc(-c2nc3n[nH]cc3c(=O)s2)c(O)cc1O [1b, 6-(2,4-Dihydroxy-5-methylphenyl)pyrazolo[3,4-d][1,3]thiazin-4(2H)-one] | – | 109 µM | – | –
101 µM | COc1c(O)ccc(-c2nc3n[nH]cc3c(=O)s2)c1O [1e, 6-(2,4-Dihydroxy-3-methoxyphenyl)pyrazolo[3,4-d][1,3]thiazin-4(2H)-one] | – | – | – | –
48.9 µM | CCCc1nn(C)c2c(=O)sc(-c3ccc(O)cc3O)nc12 [2a, 5-(2,4-Dihydroxyphenyl)-1-methyl-3-propylpyrazolo[4,3-d][1,3]thiazin-7(1H)-one] | 56.1 µM | – | – | –
– | CCCc1nn(C)c2c(=O)sc(-c3ccc(O)c(C)c3O)nc12 [2b, 5-(2,4-Dihydroxy-3-methylphenyl)-1-methyl-3-propylpyrazolo[4,3-d][1,3]thiazin-7(1H)-one] | – | – | – | Cytotoxicity (LDH release) ([4]; concentration 100 μmol dm^−3): highly toxic
32.2 µM | CCCc1nn(C)c2c(=O)sc(-c3cc(CC)c(O)cc3O)nc12 [2d, 5-(5-Ethyl-2,4-dihydroxyphenyl)-1-methyl-3-propylpyrazolo[4,3-d][1,3]thiazin-7(1H)-one] | 35 µM | – | – | –
31.8 µM | CCCc1nn(C)c2c(=O)sc(-c3cc(Cl)c(O)cc3O)nc12 [2e, 5-(5-Chloro-2,4-dihydroxyphenyl)-1-methyl-3-propylpyrazolo[4,3-d][1,3]thiazin-7(1H)-one] | – | – | – | –
– | Cc1cc(-c2nc3[nH]cnc3c(=O)s2)c(O)cc1O [3b, 5-(2,4-Dihydroxy-5-methylphenyl)imidazo[4,5-d][1,3]thiazin-7(3H)-one] | – | – | induced a decrease of death cells in the culture | –
53.5 µM | O=c1sc(-c2cc(Cl)c(O)cc2O)nc2[nH]cnc12 [3d, 5-(5-Chloro-2,4-dihydroxyphenyl)imidazo[4,5-d][1,3]thiazin-7(3H)-one] | – | – | – | –
– | Cc1cc(-c2nc3[nH]cnc3c(=O)s2)c(O)cc1O [4a, 5-(2,4-Dihydroxy-5-methylphenyl)imidazo[4,5-d][1,3]thiazin-7(1H)-one] | – | – | induced a decrease of death cells in the culture | –
89.7 µM | CCc1cc(-c2nc3nc[nH]c3c(=O)s2)c(O)cc1O [4b, 5-(5-Ethyl-2,4-dihydroxyphenyl)imidazo[4,5-d][1,3]thiazine-7(1H)-one] | – | – | – | –
18.3 µM | O=c1sc(-c2cc(Cl)c(O)cc2O)nc2nc[nH]c12 [4c, 5-(5-Chloro-2,4-dihydroxyphenyl)imidazo[4,5-d][1,3]thiazine-7(1H)-one] | 46.7 µM | 61.4 µM | – | –
– | N.N.[Cl][Pt][Cl] [cisplatin, reference compound] | – | – | – | IC50 [1]: 0.4 µM; IC50 [2]: 4.3 µM; IC50 [3]: 6 µM

SMILES | IC50 ([1]; Rattus norvegicus) | IC50 ([2]; Homo sapiens) | IC50 ([3]; Homo sapiens) | Effect on death cells in the culture (protective properties, LDH) [4] | also measured
Cc1c(O)ccc(-c2nc3n[nH]cc3c(=O)s2)c1O [1a, 6-(2,4-Dihydroxy-3-methylphenyl)pyrazolo[3,4-d][1,3]thiazin-4(2H)-one] | 17.2 µM | 9.2 µM | 102 µM | induced a decrease of death cells in the culture | –
CCc1cc(-c2nc3n[nH]cc3c(=O)s2)c(O)cc1O [1c, 6-(5-Ethyl-2,4-dihydroxyphenyl)pyrazolo[3,4-d][1,3]thiazin-4(2H)-one] | 23.1 µM | 32.2 µM | 20.9 µM | induced a decrease of death cells in the culture | –
CCCc1nn(C)c2c(=O)sc(-c3cc(C)c(O)cc3O)nc12 [2c, 5-(2,4-Dihydroxy-5-methylphenyl)-1-methyl-3-propylpyrazolo[4,3-d][1,3]thiazin-7(1H)-one] | 27.1 µM | – | 157 µM | – | Cytotoxicity (LDH release) ([4]; all tested concentrations (10–100 μmol dm^−3)): highly toxic
Cc1c(O)ccc(-c2nc3[nH]cnc3c(=O)s2)c1O [3a, 5-(2,4-Dihydroxy-3-methylphenyl)imidazo[4,5-d][1,3]thiazin-7(3H)-one] | 33.1 µM | 48.8 µM | – | induced a decrease of death cells in the culture | –
CCc1cc(-c2nc3[nH]cnc3c(=O)s2)c(O)cc1O [3c, 5-(5-Ethyl-2,4-dihydroxyphenyl)imidazo[4,5-d][1,3]thiazin-7(3H)-one] | 8.2 µM | 49.8 µM | 75.4 µM | induced a decrease of death cells in the culture | –

— PMC4498246, “Synthesis, characterization, and pharmacological evaluation of novel azolo- and azinothiazinones containing 2,4-dihydroxyphenyl substituent as anticancer agents” (Monatshefte Fur Chemie, 2015)
